# Data from US9156837B2, “Heterocyclic compound” (Takeda Pharmaceutical Company Limited, priority 2011, dated 2015).
# Tests used:
# [1] = tested on: CD4 positive naive T cells (differentiation into Th17 cells); assay: Mouse Th17 cell differentiation induction test; format: cell-based; settings: 96 h; test compound 10 μM; BALB/c mouse CD4 positive naive T cells; 4 days; ELISA; read-out: inhibitory rate (IL-17A in culture supernatant, Th17 differentiation)
# Experimental: CD4 positive naive T cells were collected from the spleen cells of BALB/c mice (female, 8-11w) using CD4+CD62L+ T Cell Isolation kit II (Miltenyi Biotec). The CD4 positive naive T cells were plated in a 96 well plate (3×10^5 cells/well), stimulated (37° C. for culture) with anti-mouse CD3ε antibody (10 μg/mL, solid phase) and anti-CD28 antibody (5 μg/mL) for 4 days in the presence of anti-IFN-γ antibody, anti-IL-4 antibody, anti-IL-2 antibody, IL-6, TGF-β and IL-23 to allow for differentiation into Th17 cells. The compound was dissolved in DMSO and then added. The cells were cultured under these conditions for 4 days, the concentration of IL-17A in the culture supernatant obtained by centrifugation was measured by ELISA, and differentiation of the Th17 cells was evaluated.
# RORγt [2] = molecular target: T1, RORγt (Homo sapiens, UniProt P51449); assay: RORγt binding test (TR-FRET, fluorescent-labeled cholesterol); settings: test compound 1 μM, histidine-tagged RORγt, read-out: binding inhibitory rate of fluorescent-labeled cholesterol to RORγt
# T1 sequence (P51449 1-497 isoform P51449-2): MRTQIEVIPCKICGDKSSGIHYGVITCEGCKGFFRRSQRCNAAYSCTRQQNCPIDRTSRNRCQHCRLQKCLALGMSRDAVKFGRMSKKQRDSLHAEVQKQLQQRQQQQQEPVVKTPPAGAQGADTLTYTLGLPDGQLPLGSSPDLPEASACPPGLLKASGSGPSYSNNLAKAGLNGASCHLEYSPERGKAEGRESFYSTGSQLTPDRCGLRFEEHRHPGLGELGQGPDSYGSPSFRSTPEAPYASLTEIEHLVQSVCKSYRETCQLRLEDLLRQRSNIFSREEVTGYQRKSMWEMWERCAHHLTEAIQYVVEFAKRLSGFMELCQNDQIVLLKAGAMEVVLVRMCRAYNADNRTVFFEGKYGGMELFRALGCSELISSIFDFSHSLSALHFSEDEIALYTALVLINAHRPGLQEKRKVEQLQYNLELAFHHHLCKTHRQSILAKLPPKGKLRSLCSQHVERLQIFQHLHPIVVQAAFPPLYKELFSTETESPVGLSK
# Experimental: The binding activity of the test compound to RORγt was measured by a time resolved fluorescence resonance energy transfer method (TR-FRET) utilizing histidine-tagged RORγt, fluorescent-labeled cholesterol (BODIPY-cholesterol, AVIVA), and terbium-labeled anti-histidine tag antibody (Invitrogen). First, a test compound diluted with an assay buffer (20 mM Tris-HCl (pH 7.5), 100 mM NaCl, 1 mM DTT, 0.1% BSA) was added to a 384 well plate by 3 μL. Then, RORγt diluted with an assay buffer to 240 nM was added by 3 μL, after which fluorescent-labeled cholesterol diluted with the assay buffer to 12 μM was added by 3 μL, and the mixture was stood at room temperature for 20 min. Thereafter, a terbium-labeled anti-histidine tag antibody diluted with the assay buffer to 8 nM was added by 3 μL. The mixture was stood at room temperature for 20 min, and fluorescence intensity (excitation wavelength 320 nm, fluorescence wavelength 520 nm, delay time 100 microseconds) was measured by Envision (PerkinElmer).
# The results (binding inhibitory rate of fluorescent-labeled cholesterol to RORγt at test compound 1 μM) measured by the above-mentioned method are shown in Table 2.
# RORγt [3] = molecular target: T1, RORγt; assay: Cofactor recruitment test (Alpha Screen, biotinylated SRC-1 peptide); format: biochemical; settings: test compound 1 μM, RORγt and biotinylated SRC-1 peptide, read-out: signal value inhibitory rate
# Experimental: Cofactor recruitment test was performed by Alpha Screen (Histidine Detection Kit, PerkinElmer) method. First, a test compound was diluted with an assay buffer (50 mM Tris-HCl (pH 7.5), 50 mM KCl, 1 mM DTT, 0.1% BSA) and added to a 384 well plate by 5 μL. Then, RORγt diluted with an assay buffer to 125 nM was added by 10 μL each, after which solutions of 25 nM biotinylated SRC-1 peptide (biotin-[…]), 12.5 μg/mL acceptor beads and 12.5 μg/mL donor beads prepared with the assay buffer were added by 10 μL each. The mixture was stood in a dark place for 1 hr, and the signal value was measured by Envision (PerkinElmer).
# RORγt [4] = molecular target: T1, RORγt; assay: Jurkat reporter test (human IL-17 ROR response element luciferase); format: cell-based; settings: test compound 3 μM; Jurkat cells transfected with IL-17 ROR response element luciferase reporter and RORγt vector; cultured overnight; read-out: luminescence level inhibitory rate
# Experimental: The Jurkat cells used for the reporter test were cultured in a culture medium (RPMI (Invitrogen), 10% FCS (AusGeneX), 100 U/mL penicillin, 100 μg/mL streptomycin). On the day of the test, 4×10^7 cells were recovered by a centrifugal operation (1000 rpm, 5 min.) and suspended in PBS (phosphate buffered saline) (Invitrogen). Thereafter, the cells were recovered again by a centrifugal operation, and suspended in 2 mL of R buffer (NEON transfection kit, Invitrogen). Then, a reporter vector 53 μg wherein a human IL-17 ROR response element was inserted into the upstream of luciferase of pGL 4.28 (Promega), and a vector (27 μg) wherein RORγt sequence was inserted into the downstream of CMV promoter were added to the cell suspension. Gene transfer was performed by Electroporation apparatus (NEON, Invitrogen) under the conditions of pulse voltage 1350 V, interval 10 milliseconds, number of times 3. The cells after gene transfer were suspended in 40 mL of a reaction medium (RPMI, 10% Lipid reduced FCS (HyClone), 10 mM HEPES (pH 7.5), 100 U/mL penicillin, 100 μg/mL streptomycin, 5 μM lovastatin), and plated in a 96 well plate by 90 μL. A test compound diluted with the reaction medium was added by 10 μL, and the cells were cultured overnight in an incubator. Bright-Glo (Promega) was added by 100 μL, and the mixture was stirred at room temperature for 10 min, and the luminescence level was measured by Envision (PerkinElmer).
# The results (luminescence level inhibitory rate at test compound 3 μM) measured by the above-mentioned method are shown in Table 4.
# [5] = tested on: Peripheral blood mononuclear cells (PBMC); assay: Human PBMC IL17 production test; format: cell-based; settings: 72 h; test compound 10 μM; human PBMC stimulated by anti-CD3/CD28 Dynabeads; 3 days; ELISA; read-out: inhibitory rate (IL-17A in culture supernatant, IL-17 production)
# Experimental: Peripheral blood mononuclear cells (PBMC) collected from human peripheral blood by a density gradient centrifugation method were stimulated by Dynabeads (registered trade mark; anti-CD3/CD28 antibody) and cultured at 37° C. for 3 days. The compound was dissolved in DMSO and then added. After culture for 3 days under such conditions, the concentration of IL-17A in the culture supernatant obtained by centrifugation was measured by ELISA, and the activity of the compound on IL-17 production was evaluated.
# [6] = tested on: CD4 positive naive T cells (differentiation into Th17 cells); assay: Human Th17 cell differentiation induction test; format: cell-based; settings: 144 h, test compound 10 μM, 6 days, ELISA, read-out: inhibitory rate (IL-17A in culture supernatant, Th17 differentiation)
# Experimental: Using peripheral blood mononuclear cells (PBMC) collected from human peripheral blood by a density gradient centrifugation method, CD4 positive naive T cells were collected. The CD4 positive naive T cells were plated in a 96 well plate (2×10^4 cells/well), and stimulated (37° C. for culture) with anti-CD3/28Ab Dynabeads for 6 days in the presence of IL-1β, IL-6, IL-23, TGFβ, anti-IFNγ Ab, anti-IL-4 Ab to allow for differentiation into Th17 cells. The compound was dissolved in DMSO and then added. After culture for 6 days, the concentration of IL-17A in the culture supernatant obtained by centrifugation was measured by ELISA, and differentiation of the Th17 cells was evaluated.
inhibition at 1 µM (RORγt [2]) [%],inhibition at 1 µM (RORγt [3]) [%],inhibition at 3 µM (RORγt [4]) [%],Structure (SMILES),inhibition at 10 µM [1] [%],inhibition at 10 µM [5] [%],inhibition at 10 µM [6] [%]
94.6,101,82.1,CC(C)(C)n1ncc(-c2nc(CC(=O)NCC3CCOCC3)cs2)c1-c1ccccc1 [Example 41],92.6,,
95.3,78.6,94.9,"O=C(Cc1csc(-c2cnn(C3CCCCC3)c2-c2ccc(F)cc2)n1)NCC1CCOCC1 [Example 51, 2-{2-[1-cyclohexyl-5-(4-fluorophenyl)-1H-pyrazol-4-yl]-1,3-thiazol-4-yl}-N-(tetrahydro-2H-pyran-4-ylmethyl)acetamide]",86,,
95.4,99.8,85.7,"CC(C)(C)n1ncc(-c2nc(CC(=O)NCc3cccnc3)cs2)c1-c1ccc(F)cc1 [Example 79, 2-{2-[1-tert-butyl-5-(4-fluorophenyl)-1H-pyrazol-4-yl]-1,3-thiazol-4-yl}-N-(pyridin-3-ylmethyl)acetamide]",69,,
96.1,102,87.1,"CN(Cc1ccncc1)C(=O)Cc1csc(-c2cnn(C(C)(C)C)c2-c2ccc(F)cc2)n1 [Example 18, 2-{2-[1-tert-butyl-5-(4-fluorophenyl)-1H-pyrazol-4-yl]-1,3-thiazol-4-yl}-N-methyl-N-(pyridin-4-ylmethyl)acetamide]",96.3,,
87.3,98.8,84.1,"CCCN(Cc1ccccc1)C(=O)Cc1csc(-c2cnn(C(C)(C)C)c2-c2ccc(F)cc2)n1 [Example 97, N-benzyl-2-{2-[1-tert-butyl-5-(4-fluorophenyl)-1H-pyrazol-4-yl]-1,3-thiazol-4-yl}-N-propylacetamide]",95,,
92,109,81,"CC(C)(C)n1ncc(-c2nc(CC(=O)NCC3CCOCC3)cs2)c1-c1ccc(F)cc1 [Example 14, 2-{2-[1-tert-butyl-5-(4-fluorophenyl)-1H-pyrazol-4-yl]-1,3-thiazol-4-yl}-N-(tetrahydro-2H-pyran-4-ylmethyl)acetamide]",77,,
98.3,101,94.2,"CC(C)(C)n1ncc(-c2nc(CC(=O)NCC3CCOCC3)cs2)c1-c1ccc(C#N)cc1 [Example 43, 2-{2-[1-tert-butyl-5-(4-cyanophenyl)-1H-pyrazol-4-yl]-1,3-thiazol-4-yl}-N-(tetrahydro-2H-pyran-4-ylmethyl)acetamide]",78.6,,
86.5,100,94.4,"CC(C)(C)n1ncc(-c2nc(CC(=O)NCc3ccc(-n4ccnc4)cc3)cs2)c1-c1ccc(F)cc1 [Example 170, 2-{2-[1-tert-butyl-5-(4-fluorophenyl)-1H-pyrazol-4-yl]-1,3-thiazol-4-yl}-N-[4-(1H-imidazol-1-yl)benzyl]acetamide]",,,
98.7,99.3,98.4,"CC(C)(C)n1ncc(-c2nc(CC(=O)NCC3CCOCC3)cs2)c1-c1cc2ccccc2s1 [Example 150, 2-{2-[5-(1-benzothiophen-2-yl)-1-tert-butyl-1H-pyrazol-4-yl]-1,3-thiazol-4-yl}-N-(tetrahydro-2H-pyran-4-ylmethyl)acetamide]",97.7,92,
98.7,101,101,"COc1ccc(-c2c(-c3nc(CC(=O)NCC4CCOCC4)cs3)cnn2C(C)(C)C)cc1 [Example 39, 2-{2-[1-tert-butyl-5-(4-methoxyphenyl)-1H-pyrazol-4-yl]-1,3-thiazol-4-yl}-N-(tetrahydro-2H-pyran-4-ylmethyl)acetamide]",95,91.3,100
97.8,101,97.1,"CC(C)(C)n1ncc(-c2nc(CC(=O)NCC3CCOCC3)cs2)c1-c1ccc(Cl)cc1 [Example 128, 2-{2-[1-tert-butyl-5-(4-chlorophenyl)-1H-pyrazol-4-yl]-1,3-thiazol-4-yl}-N-(tetrahydro-2H-pyran-4-ylmethyl)acetamide]",97.7,,
95.9,95.4,96,"COc1ccc(-c2c(-c3nc(CC(=O)NCC4CCOCC4)cs3)cnn2C(C)(C)C)cc1F [Example 152, 2-{2-[1-tert-butyl-5-(3-fluoro-4-methoxyphenyl)-1H-pyrazol-4-yl]-1,3-thiazol-4-yl}-N-(tetrahydro-2H-pyran-4-ylmethyl)acetamide]",91.2,92,
